Data published in patent US8703701B2 (Indiana University Research and Technology Corporation, priority 2009, dated 2014).
Starred links: 1 amine or outer side, 2 acyl side, 3 side chain; linkers in the order of their positions; H or OH if unused. Non-standard residues stand in square brackets, D forms with d. Residues, ends and D or L forms follow the SMILES beside them. Groups on a side chain read outwards from the residue. *: point of attachment. γGlu = O=C(O)[C@H](CCC(=O)[*:2])N[*:1]; Palmitoyl = CCCCCCCCCCCCCCCC(=O)*; Aib = CC(C)(N)C(=O)O

Experiments:
[1] = biological target: T1, glucagon receptor (Homo sapiens, UniProt P47871); test: cAMP induction, firefly luciferase reporter assay, glucagon receptor; assay type: cell-based; settings: compared to native glucagon
T1 construct: expressed in transfected cells; host or cells: HEK293
Method: (§1) The ability of each peptide to induce cAMP was measured in a firefly luciferase-based reporter assay.
(§2) At the end of the incubation, 100 μL of LucLite luminescence substrate reagent (Perkin Elmer, Wellesley, Mass.) were added to each well. The plate was shaken briefly, incubated 10 min in the dark and light output was measured on MicroBeta-1450 liquid scintillation counter (Perkin-Elmer, Wellesley, Mass.).

[2] = biological target: T2, GLP-1 receptor (Homo sapiens, UniProt P43220); test: cAMP induction, firefly luciferase reporter assay, GLP-1 receptor; assay type: cell-based; settings: for Activity at GLP-1 Receptor % Relative Activity: compared to native GLP-1; for EC50: Activity at GLP-1 Receptor EC50 [pM]
T2 construct: expressed in transfected cells; host or cells: HEK293
Method: as §1, §2

T2 sequence (P43220 24-463): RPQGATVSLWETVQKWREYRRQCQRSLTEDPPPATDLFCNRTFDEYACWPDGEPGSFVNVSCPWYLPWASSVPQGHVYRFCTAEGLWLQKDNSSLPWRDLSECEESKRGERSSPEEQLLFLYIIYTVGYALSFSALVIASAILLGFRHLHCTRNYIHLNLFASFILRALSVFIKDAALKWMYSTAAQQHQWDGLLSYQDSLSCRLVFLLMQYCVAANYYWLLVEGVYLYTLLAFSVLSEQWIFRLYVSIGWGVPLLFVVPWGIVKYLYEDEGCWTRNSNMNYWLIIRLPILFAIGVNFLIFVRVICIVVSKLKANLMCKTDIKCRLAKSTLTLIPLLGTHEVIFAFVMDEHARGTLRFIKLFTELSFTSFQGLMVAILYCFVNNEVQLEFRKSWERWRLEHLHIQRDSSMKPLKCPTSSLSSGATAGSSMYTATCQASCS
T1 sequence (P47871 26-477): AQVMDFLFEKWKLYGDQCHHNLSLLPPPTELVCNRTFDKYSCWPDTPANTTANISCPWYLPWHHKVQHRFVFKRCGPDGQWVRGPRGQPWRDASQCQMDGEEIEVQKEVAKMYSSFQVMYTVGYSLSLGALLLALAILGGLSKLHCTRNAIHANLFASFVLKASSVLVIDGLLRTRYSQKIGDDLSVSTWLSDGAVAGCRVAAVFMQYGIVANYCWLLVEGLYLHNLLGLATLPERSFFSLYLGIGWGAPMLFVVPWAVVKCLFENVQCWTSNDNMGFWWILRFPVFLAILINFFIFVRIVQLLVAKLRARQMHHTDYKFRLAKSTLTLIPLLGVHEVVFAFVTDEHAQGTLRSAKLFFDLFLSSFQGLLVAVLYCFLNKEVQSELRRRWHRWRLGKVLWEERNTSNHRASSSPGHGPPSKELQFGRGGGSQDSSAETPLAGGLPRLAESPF

| Activity at Glucagon Receptor % Relative Activity ([1]; Table 3A) [%] | Activity at GLP-1 Receptor % Relative Activity ([2]; Table 3A) [%] | EC50 ([2]; Table 3A) [pM] | Activity at Glucagon Receptor % Relative Activity ([1]; Table 2B) [%] | Activity at GLP-1 Receptor % Relative Activity ([2]; Table 2B) [%] | Structure (SMILES) |
| --- | --- | --- | --- | --- | --- |
| 661 | 524 |  |  |  | CCCCCCCCCCCCCCCC(=O)N[C@@H](CCC(=O)N[C@@H](CCC(=O)NCCCC[C@H](NC(=O)[C@H](CC(=O)O)NC(=O)[C@H](CO)NC(=O)[C@@H](NC(=O)[C@H](Cc1ccccc1)NC(=O)[C@@H](NC(=O)CNC(=O)[C@H](CCC(N)=O)NC(=O)[C@@H](CO)NC(=O)[C@@H](N)Cc1c[nH]cn1)[C@@H](C)O)[C@@H](C)O)C(=O)N[C@@H](CO)C(=O)N[C@@H](CCCCN)C(=O)N[C@@H](Cc1ccc(O)cc1)C(=O)N[C@@H](CC(C)C)C(=O)N[C@@H](CC(=O)O)C(=O)NC(C)(C)C(=O)N[C@@H](CCCNC(=N)N)C(=O)N[C@@H](C)C(=O)N[C@@H](C)C(=O)N[C@@H](CCC(N)=O)C(=O)N[C@@H](CC(=O)O)C(=O)N[C@@H](Cc1ccccc1)C(=O)N[C@H](C(=O)N[C@@H](CCC(N)=O)C(=O)N[C@@H](Cc1c[nH]c2ccccc12)C(=O)N[C@@H](CC(C)C)C(=O)N[C@@H](CCSC)C(=O)N[C@@H](CC(=O)O)C(=O)N[C@H](C(N)=O)[C@@H](C)O)C(C)C)C(=O)O)C(=O)O [compound 44] (H-H[dS]QGTFTSDK([γGlu-γGlu-Palmitoyl])SKYLD[Aib]RAAQDFVQWLMDT-NH2; N-terminus assumed) |
| 75 | 759 | 3 |  |  | CCCCCCCCCCCCCCCC(=O)N[C@@H](CCC(=O)N[C@@H](CCC(=O)NCCCC[C@H](NC(=O)[C@H](CC(=O)O)NC(=O)[C@H](CO)NC(=O)[C@@H](NC(=O)[C@H](Cc1ccccc1)NC(=O)[C@@H](NC(=O)CNC(=O)[C@H](CCC(=O)O)NC(=O)C(C)(C)NC(=O)[C@@H](N)Cc1c[nH]cn1)[C@@H](C)O)[C@@H](C)O)C(=O)N[C@@H](CO)C(=O)N[C@@H](CCCCN)C(=O)N[C@@H](Cc1ccc(O)cc1)C(=O)N[C@@H](CC(C)C)C(=O)N[C@@H](CC(=O)O)C(=O)NC(C)(C)C(=O)N[C@@H](CCCNC(=N)N)C(=O)N[C@@H](C)C(=O)N[C@@H](C)C(=O)N[C@@H](CCC(N)=O)C(=O)N[C@@H](CC(=O)O)C(=O)N[C@@H](Cc1ccccc1)C(=O)N[C@H](C(=O)N[C@@H](CCC(N)=O)C(=O)N[C@@H](Cc1c[nH]c2ccccc12)C(=O)N[C@@H](CC(C)C)C(=O)N[C@@H](CCSC)C(=O)N[C@@H](CC(=O)O)C(=O)N[C@H](C(N)=O)[C@@H](C)O)C(C)C)C(=O)O)C(=O)O [compound 45] (H-H[Aib]EGTFTSDK([γGlu-γGlu-Palmitoyl])SKYLD[Aib]RAAQDFVQWLMDT-NH2; N-terminus assumed) |
|  |  |  | 113 | 246 | CCCCCCCCCCCCCCCC(=O)N[C@@H](CCC(=O)NCCCC[C@H](NC(=O)[C@H](CC(=O)O)NC(=O)[C@H](CO)NC(=O)[C@@H](NC(=O)[C@H](Cc1ccccc1)NC(=O)[C@@H](NC(=O)CNC(=O)[C@H](CCC(N)=O)NC(=O)[C@@H](CO)NC(=O)[C@@H](N)Cc1c[nH]cn1)[C@@H](C)O)[C@@H](C)O)C(=O)N[C@@H](CO)C(=O)N[C@@H](CCCCN)C(=O)N[C@@H](Cc1ccc(O)cc1)C(=O)N[C@@H](CC(C)C)C(=O)N[C@@H](CC(=O)O)C(=O)NC(C)(C)C(=O)N[C@@H](CCCCN)C(=O)N[C@@H](CCCNC(=N)N)C(=O)N[C@@H](C)C(=O)N[C@@H](CCCCN)C(=O)N[C@@H](CCC(=O)O)C(=O)N[C@@H](Cc1ccccc1)C(=O)N[C@H](C(=O)N[C@@H](CS)C(=O)N[C@@H](Cc1c[nH]c2ccccc12)C(=O)N[C@@H](CC(C)C)C(=O)N[C@@H](CC(C)C)C(=O)N[C@@H](CC(=O)O)C(=O)N[C@H](C(N)=O)[C@@H](C)O)C(C)C)C(=O)O [compound 62] (H-H[dS]QGTFTSDK([γGlu-Palmitoyl])SKYLD[Aib]KRAKEFVCWLLDT-NH2; N-terminus assumed) |

Second part, the compound before the results:

| Structure (SMILES) | Activity at Glucagon Receptor % Relative Activity ([1]; Table 3A) [%] | Activity at GLP-1 Receptor % Relative Activity ([2]; Table 3A) [%] | EC50 ([2]; Table 3A) [pM] | Activity at Glucagon Receptor % Relative Activity ([1]; Table 2B) [%] | Activity at GLP-1 Receptor % Relative Activity ([2]; Table 2B) [%] |
| --- | --- | --- | --- | --- | --- |
| CCCCCCCCCCCCCCCC(=O)N[C@@H](CCC(=O)N[C@@H](CCC(=O)NCCCC[C@H](NC(=O)[C@H](CC(=O)O)NC(=O)[C@H](CO)NC(=O)[C@@H](NC(=O)[C@H](Cc1ccccc1)NC(=O)[C@@H](NC(=O)CNC(=O)[C@H](CCC(N)=O)NC(=O)C(C)(C)NC(=O)[C@@H](N)Cc1c[nH]cn1)[C@@H](C)O)[C@@H](C)CC)C(=O)N[C@@H](CO)C(=O)N[C@@H](CCCCN)C(=O)N[C@@H](Cc1ccc(O)cc1)C(=O)N[C@@H](CC(C)C)C(=O)N[C@@H](CC(=O)O)C(=O)NC(C)(C)C(=O)N[C@@H](CCCNC(=N)N)C(=O)N[C@@H](C)C(=O)N[C@@H](C)C(=O)N[C@@H](CCC(N)=O)C(=O)N[C@@H](CC(=O)O)C(=O)N[C@@H](Cc1ccccc1)C(=O)N[C@H](C(=O)N[C@@H](CCC(N)=O)C(=O)N[C@@H](Cc1c[nH]c2ccccc12)C(=O)N[C@@H](CC(C)C)C(=O)N[C@@H](CCSC)C(=O)N[C@@H](CC(=O)O)C(=O)N[C@H](C(=O)O)[C@@H](C)O)C(C)C)C(=O)O)C(=O)O [compound 46] | 2800 | 4.9 |  |  |  |
| CCCCCCCCCCCCCCCC(=O)N[C@@H](CCC(=O)N[C@@H](CCC(=O)NCCCC[C@H](NC(=O)[C@H](CC(=O)O)NC(=O)[C@H](CO)NC(=O)[C@@H](NC(=O)[C@H](Cc1ccccc1)NC(=O)[C@@H](NC(=O)CNC(=O)[C@H](CCC(N)=O)NC(=O)C(C)(C)NC(=O)[C@@H](N)Cc1c[nH]cn1)[C@@H](C)O)[C@@H](C)O)C(=O)N[C@@H](CO)C(=O)N[C@@H](CCCCN)C(=O)N[C@@H](Cc1ccc(O)cc1)C(=O)N[C@@H](CC(C)C)C(=O)N[C@@H](CC(=O)O)C(=O)NC(C)(C)C(=O)N[C@@H](CCCNC(=N)N)C(=O)N[C@@H](C)C(=O)N[C@@H](C)C(=O)N[C@@H](CCC(N)=O)C(=O)N[C@@H](CC(=O)O)C(=O)N[C@@H](Cc1ccccc1)C(=O)N[C@H](C(=O)N[C@@H](CCC(N)=O)C(=O)N[C@@H](Cc1c[nH]c2ccccc12)C(=O)N[C@@H](CC(C)C)C(=O)N[C@@H](CCSC)C(=O)N[C@@H](CC(=O)O)C(=O)N[C@H](C(N)=O)[C@@H](C)O)C(C)C)C(=O)O)C(=O)O [compound 42] (H-H[Aib]QGTFTSDK([γGlu-γGlu-Palmitoyl])SKYLD[Aib]RAAQDFVQWLMDT-NH2; N-terminus assumed) | 863 | 500 | 5 |  |  |
| CSCC[C@H](NC(=O)[C@H](CC(C)C)NC(=O)[C@H](Cc1c[nH]c2ccccc12)NC(=O)[C@H](CCC(N)=O)NC(=O)[C@@H](NC(=O)[C@H](Cc1ccccc1)NC(=O)[C@H](CCC(=O)O)NC(=O)[C@H](CCCCN)NC(=O)[C@H](C)NC(=O)[C@H](CCCNC(=N)N)NC(=O)[C@H](CCCCN)NC(=O)[C@H](CCC(=O)O)NC(=O)[C@H](CC(=O)O)NC(=O)[C@H](CC(C)C)NC(=O)[C@H](Cc1ccc(O)cc1)NC(=O)[C@H](CCCCN)NC(=O)[C@H](CO)NC(=O)[C@H](Cc1ccc(O)cc1)NC(=O)[C@H](CC(=O)O)NC(=O)[C@H](CO)NC(=O)[C@@H](NC(=O)[C@H](Cc1ccccc1)NC(=O)[C@@H](NC(=O)CNC(=O)[C@H](CCC(N)=O)NC(=O)[C@H](CO)NC(=O)[C@@H](N)Cc1c[nH]cn1)[C@@H](C)O)[C@@H](C)O)C(C)C)C(=O)N[C@@H](CC(N)=O)C(=O)N[C@H](C(N)=O)[C@@H](C)O [compound 65] |  |  |  | 264 | 64 |
